Measured values: ChEMBL document CHEMBL5244253, “Recent research progress on natural small molecule bibenzyls and its derivatives in Dendrobium species” (Eur J Med Chem, 2020)

Tests used:
PC-12 [1] = test: Neuroprotection against Amyloid beta (25 to 35)-induced toxicity in rat PC-12 cells assessed as increase in cell viability at 10 uM for 24 hrs by MTT assay relative to control; assay type: functional
PC-12 [2] = test: Neuroprotection against Amyloid beta (25 to 35)-induced toxicity in rat PC-12 cells assessed as increase in cell viability at 50 uM for 24 hrs by MTT assay relative to control; assay type: functional
PC-12 [3] = test: Neuroprotection against Amyloid beta (25 to 35)-induced toxicity in rat PC-12 cells assessed as increase in cell viability at 25 uM for 24 hrs by MTT assay relative to control; assay type: functional
NCI-H292 = test: Anti-cancer activity against human NCI-H292 cells; assay type: functional, cell-based
[4] = Permeability of the compound by PAMPA-BBB assay; assay type: ADME; settings: read-out: permeability
SGC-7901 = test: Anti-cancer activity against human SGC-7901 cells; assay type: functional, cell-based
[5] = Antioxidant activity assessed as DPPH radical scavenging activity incubated for 30 mins by spectrophotometric analysis; assay type: functional
PC-12 [6] = test: Neurotrophic activity in rat PC-12 cells assessed as induction of NGF-mediated neurite outgrowth at 10 uM measured after 72 hrs relative to control; assay type: functional
[7] = target: Tyrosine-protein phosphatase non-receptor type 1 (Homo sapiens, UniProt P18031); test: Inhibition of PTP1B (unknown origin)
HL-60 = test: Anti-cancer activity against human HL-60 cells; assay type: functional, cell-based
THP-1 = test: Anti-cancer activity against human THP-1 cells; assay type: functional, cell-based
RAW264.7 = test: Antiinflammatory activity in mouse RAW264.7 cells assessed as inhibition of LPS-induced NO production at 25 uM measured after 24 hrs; assay type: functional
[8] = target: Nitric oxide synthase, inducible (Homo sapiens, UniProt P35228); test: Inhibition of iNOS (unknown origin)
[9] = target: Aldo-keto reductase family 1 member B1 (Homo sapiens, UniProt P15121); test: Inhibition of aldose reductase (unknown origin) using DL-glyceraldehyde as substrate
NCI-H23 = test: Anti-cancer activity against human NCI-H23 cells; assay type: functional, cell-based
[10] = Antioxidant activity assessed as DPPH radical scavenging activity at 100 ug/ml incubated for 30 mins by spectrophotometric analysis; assay type: functional; settings: dose 100.0 µg/ml
HT-29 = test: Cytotoxicity against human HT-29 cells assessed as cell viability incubated for 72 hrs by MTT assay; assay type: functional, cell-based; settings: HT-29, 72 h
HepG2 = test: Cytotoxicity against human HepG2 cells assessed as cell viability incubated for 72 hrs by MTT assay; assay type: functional, cell-based; settings: HepG2, 72 h
MDA-MB-231 = test: Cytotoxicity against human MDA-MB-231 cells assessed as cell viability incubated for 72 hrs by MTT assay; assay type: functional, cell-based; settings: MDA-MB-231, 72 h
Bel-7402 = test: Anti-cancer activity against human Bel-7402 cells; assay type: functional, cell-based
K562 = test: Anti-cancer activity against human K562 cells; assay type: functional, cell-based
T-24 = test: Anti-cancer activity against human T24 cells; assay type: functional, cell-based

Sequence of Nitric oxide synthase, inducible (P35228 whole entry): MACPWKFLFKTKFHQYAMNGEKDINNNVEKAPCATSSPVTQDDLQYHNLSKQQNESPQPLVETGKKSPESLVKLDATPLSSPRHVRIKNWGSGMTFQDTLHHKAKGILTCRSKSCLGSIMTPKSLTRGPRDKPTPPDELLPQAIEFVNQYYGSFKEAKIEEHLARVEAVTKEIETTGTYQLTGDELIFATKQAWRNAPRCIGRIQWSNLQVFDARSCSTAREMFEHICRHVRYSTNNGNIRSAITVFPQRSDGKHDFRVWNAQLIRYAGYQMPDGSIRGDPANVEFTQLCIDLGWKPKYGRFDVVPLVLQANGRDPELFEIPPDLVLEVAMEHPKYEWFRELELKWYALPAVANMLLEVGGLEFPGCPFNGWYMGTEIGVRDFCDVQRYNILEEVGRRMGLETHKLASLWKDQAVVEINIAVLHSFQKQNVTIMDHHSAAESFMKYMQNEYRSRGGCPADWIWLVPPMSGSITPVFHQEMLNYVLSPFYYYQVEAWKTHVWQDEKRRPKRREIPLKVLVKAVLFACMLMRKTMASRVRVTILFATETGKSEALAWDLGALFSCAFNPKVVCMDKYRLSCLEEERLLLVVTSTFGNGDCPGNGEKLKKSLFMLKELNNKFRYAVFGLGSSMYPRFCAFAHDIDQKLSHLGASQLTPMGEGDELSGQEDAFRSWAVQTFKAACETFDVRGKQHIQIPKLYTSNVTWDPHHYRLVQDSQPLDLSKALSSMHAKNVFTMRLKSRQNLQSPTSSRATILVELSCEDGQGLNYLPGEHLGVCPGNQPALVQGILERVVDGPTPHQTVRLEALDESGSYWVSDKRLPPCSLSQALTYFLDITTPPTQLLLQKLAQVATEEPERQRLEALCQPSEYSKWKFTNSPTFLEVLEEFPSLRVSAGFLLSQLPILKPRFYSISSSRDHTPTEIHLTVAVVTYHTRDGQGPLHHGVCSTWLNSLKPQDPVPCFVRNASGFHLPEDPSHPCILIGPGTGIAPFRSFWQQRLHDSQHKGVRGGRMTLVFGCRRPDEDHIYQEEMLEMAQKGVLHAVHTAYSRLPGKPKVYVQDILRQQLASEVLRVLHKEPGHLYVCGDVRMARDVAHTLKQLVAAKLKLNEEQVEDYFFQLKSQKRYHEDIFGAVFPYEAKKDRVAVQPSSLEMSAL
Sequence of Tyrosine-protein phosphatase non-receptor type 1 (P18031 whole entry): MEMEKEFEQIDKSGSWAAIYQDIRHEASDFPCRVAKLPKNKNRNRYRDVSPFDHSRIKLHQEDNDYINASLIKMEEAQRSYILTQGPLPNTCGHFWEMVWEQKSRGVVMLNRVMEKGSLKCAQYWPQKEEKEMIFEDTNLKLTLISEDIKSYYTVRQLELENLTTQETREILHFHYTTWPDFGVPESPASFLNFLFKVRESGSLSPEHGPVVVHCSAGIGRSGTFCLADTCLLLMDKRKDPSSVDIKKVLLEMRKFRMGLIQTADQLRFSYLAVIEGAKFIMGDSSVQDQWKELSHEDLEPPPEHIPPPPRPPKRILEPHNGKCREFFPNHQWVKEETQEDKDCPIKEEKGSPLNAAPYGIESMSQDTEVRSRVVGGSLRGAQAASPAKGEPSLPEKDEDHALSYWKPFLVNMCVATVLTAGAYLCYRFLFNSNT

CCCOc1c(OC)cc(CCc2ccc(OC)c(OC)c2)cc1OC
Activity (PC-12 [1]): 49.21% | Activity (PC-12 [2]): 48.81% | Activity (PC-12 [3]): 49.11%

COc1cc(CCc2cc(O)c(O)c(OC)c2)ccc1O
IC50 (NCI-H292): 96.6 µM

COc1ccc(CCc2cc(OC)c(OCc3ccccc3)c(OC)c2)cc1OC
Activity (PC-12 [1]): 58.22% | Activity (PC-12 [2]): 71% | Activity (PC-12 [3]): 60.89% | Papp [4]: 8.2 ×10⁻⁶ cm/s

COc1cc(CCc2cc(O)c(OC)c(OC)c2)ccc1O
IC50 (SGC-7901): 16.7 µM

COc1cc([C@H](Cc2ccc(O)cc2)OC)cc(O)c1O
IC50 [5]: 34.2 µM

COc1cc(CCc2ccc(O)cc2)cc(OC)c1O
Activity (PC-12 [6]): 6.94% | IC50 (NCI-H292): 198 µM

COc1cc(CCc2cc(O)cc(O)c2)ccc1O [TRISTIN]
IC50 [7]: 21.2 µM | IC50 (HL-60): 29.1 µM | IC50 (THP-1): 13.5 µM | inhibition at 25 µM (RAW264.7): 27.2%

CCCCC(CC)Oc1c(OC)cc(CCc2ccc(OC)c(OC)c2)cc1OC (stereo not given)
Activity (PC-12 [1]): 51.03% | Activity (PC-12 [2]): 58.88% | Activity (PC-12 [3]): 54.78%

COc1cc(O)cc(CCc2ccc(O)c(O)c2)c1
IC50 [8]: 680 µM | IC50 [9]: 176 µM

COc1ccc(CCc2cc(OC)c(OCC(C)C)c(OC)c2)cc1OC
Activity (PC-12 [1]): 54.53% | Activity (PC-12 [2]): 49.89% | Activity (PC-12 [3]): 50.12%

CCC(=O)Oc1c(OC)cc(CCc2ccc(OC)c(OC)c2)cc1OC
Activity (PC-12 [1]): 45.31% | Activity (PC-12 [2]): 44.4% | Activity (PC-12 [3]): 44.21%

COc1ccc(CCc2cc(OC)c(OC(=O)c3ccncc3)c(OC)c2)cc1OC
Activity (PC-12 [1]): 53.53% | Activity (PC-12 [2]): 46.56% | Activity (PC-12 [3]): 50.71%

COc1ccc(CC2c3cc(O)cc(CCc4ccc(O)cc4)c3Oc3c2cc(O)c(OC)c3O)cc1 (stereo not given)
IC50 (HL-60): 2.1 µM

COc1cc(CCc2cc(OC)c(OC)c(OC)c2)ccc1O
IC50 (NCI-H23): 158 µM | IC50 [5]: 21.8 µM

CCCCC(=O)Oc1c(OC)cc(CCc2ccc(OC)c(OC)c2)cc1OC
Activity (PC-12 [1]): 49.73% | Activity (PC-12 [2]): 48.63% | Activity (PC-12 [3]): 41.9%

COc1cc([C@@H]2Oc3cc(CCc4ccc(O)cc4)cc(OC)c3O[C@H]2CO)cc(OC)c1O
Activity (PC-12 [6]): 9.46%

CCCC(CCC)C(=O)Oc1c(OC)cc(CCc2ccc(OC)c(OC)c2)cc1OC
Activity (PC-12 [1]): 50.11% | Activity (PC-12 [2]): 60.02% | Activity (PC-12 [3]): 55.21%

COc1cc(O)cc(CCc2cccc(O)c2)c1 [BATATASIN III]
inhibition at 25 µM (RAW264.7): 21.6% | Activity (PC-12 [6]): 8.2% | inhibition [10]: 36.3%

COc1ccc(CCc2cc(OC)c(O)c3c2C(Cc2ccc(O)cc2)c2cc(O)c(O)c(OC)c2O3)cc1 (stereo not given)
IC50 [5]: 32.4 µM

CCO[C@@H](Cc1ccc(O)cc1)c1cc(O)c(O)c(OC)c1
IC50 [5]: 34.5 µM

CCCC(=O)Oc1c(OC)cc(CCc2ccc(OC)c(OC)c2)cc1OC
Activity (PC-12 [1]): 54.89% | Activity (PC-12 [2]): 49.37% | Activity (PC-12 [3]): 50.12%

COc1ccc(CCc2cc(OC)c(OC(=O)c3ccccn3)c(OC)c2)cc1OC
Activity (PC-12 [1]): 52.97% | Activity (PC-12 [2]): 54.6% | Activity (PC-12 [3]): 50.1%

COc1cc(C[C@H](O)c2cc(O)cc(O)c2)ccc1O
inhibition at 25 µM (RAW264.7): 15%

COc1ccc(CCc2cc(OC)c(OCCC(C)C)c(OC)c2)cc1OC
Activity (PC-12 [1]): 50.21% | Activity (PC-12 [2]): 49.48% | Activity (PC-12 [3]): 50.16%

CCC(C)Oc1c(OC)cc(CCc2ccc(OC)c(OC)c2)cc1OC (stereo not given)
Activity (PC-12 [1]): 49.02% | Activity (PC-12 [2]): 48.75% | Activity (PC-12 [3]): 49.73%

COc1ccc(CCc2cc(OC)c3c(c2)O[C@H](c2cc(O)c(O)c(OC)c2)[C@@H](c2ccc(OC)cc2)O3)cc1
IC50 (HT-29): 52 µM | IC50 (HepG2): 89.7 µM | IC50 [5]: 21.3 µM | IC50 (MDA-MB-231): 42.5 µM

COc1ccc(CCc2cc(OC)c(OC)c(OC)c2)cc1OC
IC50 (NCI-H23): 252 µM

COc1cc(CC(O)c2cc(OC)c(O)c(OC)c2)ccc1O (stereo not given) [NOBILIN D]
IC50 [5]: 19.9 µM

CCOc1c(OC)cc(CCc2ccc(OC)c(OC)c2)cc1OC
Activity (PC-12 [1]): 53.84% | Activity (PC-12 [2]): 46.15% | Activity (PC-12 [3]): 50.92%

CCCCOc1c(OC)cc(CCc2ccc(OC)c(OC)c2)cc1OC
Activity (PC-12 [1]): 51.79% | Activity (PC-12 [2]): 53.44% | Activity (PC-12 [3]): 52.03%

COc1cc2c(c(OC)c1O)-c1c(OC)cc(CCc3cccc(O)c3)cc1O[C@H]2[C@H](O)CO
IC50 (Bel-7402): 10 µM | IC50 (K562): 10.3 µM

COc1ccc(CCc2cc(OC)c(OC(=O)c3ccccc3)c(OC)c2)cc1OC
Activity (PC-12 [1]): 58.18% | Activity (PC-12 [2]): 100.78% | Activity (PC-12 [3]): 80.12% | Papp [4]: 6.9 ×10⁻⁶ cm/s

COc1ccc(CCc2cc(OC)c(OC(=O)c3ccc(Cl)cc3)c(OC)c2)cc1OC
Activity (PC-12 [1]): 56.41% | Activity (PC-12 [2]): 95.62% | Activity (PC-12 [3]): 69.24% | Papp [4]: 6.2 ×10⁻⁶ cm/s

COc1cc(CCc2ccc(O)c(O)c2)cc(O)c1O
IC50 [5]: 15.6 µM

Oc1cc(O)cc(CCc2ccc3c(c2)OCO3)c1
inhibition at 25 µM (RAW264.7): 22.1% | inhibition [10]: 88%

Oc1ccc(CCc2ccc(O)c(O)c2)cc1O
IC50 [9]: 534 µM

COC1=CC(O)(CCc2ccc(O)c(OC)c2)C=C(OC)C1=O
inhibition at 25 µM (RAW264.7): 19.7% | inhibition [10]: 35.3%

COc1cc(CCc2cccc(O)c2)cc(O)c1OC
IC50 (Bel-7402): 11.7 µM | IC50 (SGC-7901): 7.8 µM | IC50 (K562): 15.7 µM

COc1cccc(CCc2cc(O)c(O)c(OC)c2)c1
IC50 [5]: 40.3 µM

COc1ccc(CC2C3=C(Cc4c2cc(O)c(O)c4OC)C(=O)c2cc(O)c4cc(O)ccc4c2C3=O)cc1 (stereo not given)
IC50 [5]: 19.8 µM

COc1ccc(CCc2cc(OC)c(OC(=O)CCc3ccccc3)c(OC)c2)cc1OC
Activity (PC-12 [1]): 54% | Activity (PC-12 [2]): 49.84% | Activity (PC-12 [3]): 50.22%

COc1cc(CCc2ccc(O)c(O)c2)cc(OC)c1O
IC50 [9]: 17.8 µM

COc1cc(O)cc(CCc2ccc(O)cc2)c1
IC50 (HL-60): 25.6 µM | Activity (PC-12 [6]): 12.08%

CCCCC(C)Oc1c(OC)cc(CCc2ccc(OC)c(OC)c2)cc1OC (stereo not given)
Activity (PC-12 [1]): 50.67% | Activity (PC-12 [2]): 52.18% | Activity (PC-12 [3]): 50.25%

COc1cc(CCc2cccc(O)c2)cc(OC)c1O
IC50 (HL-60): 4.48 µM | IC50 (SGC-7901): 12.8 µM

Oc1ccc(CCc2cc(Cl)ccc2O)cc1O
IC50 [9]: 21.8 µM

COc1cc(CCc2ccc(O)c(O)c2)cc(OC)c1
IC50 [9]: 39.2 µM

COc1ccc(CCc2cc(OC)c(OC(=O)CCC(C)C)c(OC)c2)cc1OC
Activity (PC-12 [1]): 49.83% | Activity (PC-12 [2]): 49.57% | Activity (PC-12 [3]): 50.4%

COc1ccc(CC2c3cc(O)c(O)c(OC)c3Oc3cc(O)c4c(c32)CCc2cc(O)ccc2-4)cc1 (stereo not given)
IC50 (HT-29): 30.4 µM | IC50 (HepG2): 51.3 µM | IC50 (MDA-MB-231): 25.2 µM

COc1ccc(CCc2cc(O)c(OC)c3c2Oc2c(cc(O)c(OC)c2O)C3Cc2ccc(OC)cc2)cc1 (stereo not given)
IC50 (HL-60): 6.4 µM

O=C1O[C@H]([C@@H](O)CO)C(O)=C1O [ASCORBIC ACID]
IC50 [5]: 23.2 µM

CC(C)c1ccc(CCc2cc(O)cc(O)c2)cc1
IC50 [9]: 513 µM

COc1ccc(CCc2cc(OC)c(OC3CCCC3)c(OC)c2)cc1OC
Activity (PC-12 [1]): 54.77% | Activity (PC-12 [2]): 72.64% | Activity (PC-12 [3]): 61.02% | Papp [4]: 7.6 ×10⁻⁶ cm/s

COc1ccc(CCc2cc(OC)c(OC(=O)C(C)C)c(OC)c2)cc1OC
Activity (PC-12 [1]): 49.34% | Activity (PC-12 [2]): 45.91% | Activity (PC-12 [3]): 47.33%

COc1ccc(CCc2cc(OC)c(OC)c(OC)c2)cc1O
IC50 (T-24): 460 nM

Oc1cc(O)cc(CCc2ccc(F)cc2)c1
IC50 [9]: 566 µM

COc1cc(CCc2cc(OC)c3c(c2)O[C@@H](c2cc(OC)c(O)c(OC)c2)[C@H](CO)O3)ccc1O
Activity (PC-12 [6]): 7.86%

COc1cccc(CCc2ccc(O)c(O)c2)c1O
IC50 [8]: 434 µM | IC50 [9]: 126 µM
